Results on 13 compounds are retold here after US8883763B2 (Universite Joseph Fourier, priority 2010, dated 2014).

Structures are written as SMILES.

The target of one assay is T1, PP1α (PP1CA) (Oryctolagus cuniculus, UniProt P62139).
T1 construct: purchased New England Biolabs P0754
The experiment in a line: Protein phosphatase test (PP1 activity, DiFMUP fluorescent substrate). The assay is classed as biochemical. Particulars: for IC50: PP1CA at 80 mU, fluorescent substrate (50 μM), molecules from 50 μM to 50 nM, read-out: PP1 Inhibition IC50. How it is done: FIG. 13 presents the graph showing the inhibition of the PP1Cα activity by compound 6 in vitro. PP1Cα (New England Biolabs, 30 mU/well) was incubated in the presence of compound 6 at different concentrations and a fluorescent substrate, diFMUP.
Determination of the 1050 was carried out with PP1CA at 80 mU in the presence of a fluorescent substrate
(50 μM) and different concentrations of molecules from 50 μM to 50 nM.
For the activity tests, PP1α (New England Biolabs # P0754) was used at a final concentration of 30 mU or 80 mU for the screening of all the analogues. 6,8-difluoro-4-methylumbelliferyl phosphate (DiFMUP, Invitrogen # D6567) was used as fluorescent substrate at a concentration of […]. All the tests were carried out in a final volume of 100 μl, at 37° C. in 96-microwell plates (Greiner #655096).
Compound 6, combretastatin A4 (CA-4) as well as all the analogues were diluted in 50 μl of PP1 buffer (100 mM Tris-HCl, pH 7.5, 4 mM DTT, 0.2 mM EDTA, 0.5 mM MnCl2) from 50 μM to 50 nM. Corresponding quantities of DMSO were added to control wells. PP1α (30 or 80 mU in 30 μl of PP1 buffer) was added to each well. After incubating for 15 minutes at AT, the substrate was added (in 20 μl of PP1 buffer). After incubating for 20 minutes at 37° C., the fluorescence was measured in a plate fluorometer at 355-460 nm in order to assay the phosphatase activity. The test was carried out three times in duplicate for each condition.

For a further assay, the system named is bovine brain tubulin. The assay is described as follows: In vitro tubulin polymerization test (turbidimetry at 350 nm). Particulars: molecules at 50 μM, calculated at t=3000 s, DMSO control = 100%. The assay is classed as biochemical. As to the method:
Tubulin was purified from bovine brain using the polymerization-depolymerization process described by (Castoldi M and Popov A V. Protein Expr Purif. 2003, 32(1): pp 83-8).
The in vitro tubulin polymerization tests (at 50 μM) were carried out in the presence of GTP 1 mM in BRB80 buffer (80 mM K-PIPES pH 6.8, 1 mM MgCl2, 1 mM EGTA) at 37° C. The tests were carried out in 96-microwell plates (half-wells) (Costar plates, Corning #3695), in triplicate with a final volume of 70 μl. Tubulin assembly was carried out in the presence of compound 6 or its analogues (all used at a concentration of 50 μM) and was monitored by turbidimetry measurement at 350 nm using a spectrophotometer (Spectramax More, Molecular Devices).
Measurement of the effect of a molecule on polymerization was calculated at t=3000 s taking the value of the control at the same time as being equal to 100%.

The next assay concerns HeLa cells. The assay is described as follows: Indirect immunofluorescence: effect on HeLa cells (mitotic arrest, microtubule depolymerization). The assay is classed as cell-based, human. Details: key to Effect on Hela at 25 μM / Effect on Hela at 100 μM / Effect on Hela at 50 and 100 μM / Effect on Hela at 50 μM: —: −: no activity on the cells at 25 μM (if there is an effect at high concentrations, this is specified in the table).; *: weak activity (MA and/or slight depolymerization of the MTs and/or slight inhibition of proliferation),; **: average activity (MA and/or moderate depolymerization of the MTs and/or moderate inhibition of proliferation),; ***: strong activity (MA and/or pronounced depolymerization of the MTs and/or pronounced inhibition of proliferation),; ****: very strong activity (MA and/or very pronounced depolymerization of the MTs and/or strong inhibition of proliferation). Particulars: 24 hours; for Effect on Hela at 25 μM: mitotic index and/or depolymerization of the MTs. How it is done:
The cells were cultured on slides in 24-well plates and incubated for 24 hours with molecule 6 at different concentrations from 1 to 10 μM.
Corresponding quantities of DMSO were added to the culture medium in the control wells.
The cells were fixed in a solution of PBS with 4% paraformaldehyde (PFA) and 0.1% glutaraldehyde (GA), for 15 minutes and centrifuged at 300 g for the last 10 minutes of the fixing. The slides were rinsed in PBS and the free aldehyde groups were reduced by two successive 5-minute incubations in PBS containing 1 mg/ml of NaBH4.
After one washing with PBS then another with PBST (PBS with 0.5% triton-X-100), the cells are incubated for 30 minutes at ambient temperature with anti α-tubulin monoclonal antibody solution (DM1A clone, Sigma # T6199) diluted to 1:200 in PBST. After 3 10-minute washings with PBST, the cells are incubated for 30 minutes at ambient temperature in a solution of goat anti-mouse polyclonal antibodies coupled with Alexa 488 (1:1000, Molecular Probes # A-11029) and phalloidin coupled with Texas red to label the actin (1:2000, Molecular Probes # T7471), in PBST also containing Hoechst 33258 (1 μg/ml) for labelling the DNA. After 3 10-minute washings in PBST, the slides are mounted on plates in Fluorsave™ mounting medium (Calbiochem #345789) and are observed and analyzed using an Axiovert 200M inverted fluorescence microscope (Zeiss®). The images are produced with a Plan-Apochromat 63× oil objective (Zeiss®) by means of a Coolsnap HQ camera (Roper Scientifics®) and with Metamorph acquisition software (Universal Imaging™ Corporation).
In order to evaluate the effect of the analogues of compound 6 on PHFs and HeLa cells, the immunofluorescence technique described above was used and adapted to a 96-well dish format. The cells were seeded in glass-bottomed 96-well dishes and incubated for 24 hours in the presence of different concentrations of molecules from 100 μM to 50 nM. And in the same way as described above, the cells were fixed and immunolabelled. Analysis of the phenotypes as well as counting the mitotic cells were carried out with the same microscope but using a ×40 objective (Olympus). The molecules were compared with each other with respect to the mitotic arrest induced on PHFs and HeLa cells at 25 and 0.3 μM.
The mitotic index and/or the depolymerization of the MTs were evaluated at 25 μM.

The next assay concerns HMEC cells. The assay is described as follows: Proliferation of HMEC cells (GI50). Particulars: Homo sapiens, 120 h, 50 μM to 1 nM for 5 days. It is filed as cell-based. How it is done: The HMECs were seeded at 10% confluence and incubated with the molecules at different concentrations (from 50 μM to 1 nM) for 5 days. The GI50 (50% Growth Inhibition) defines the concentration inducing a 50% reduction in proliferation with respect to the control.

T1 sequence (P62139 whole entry): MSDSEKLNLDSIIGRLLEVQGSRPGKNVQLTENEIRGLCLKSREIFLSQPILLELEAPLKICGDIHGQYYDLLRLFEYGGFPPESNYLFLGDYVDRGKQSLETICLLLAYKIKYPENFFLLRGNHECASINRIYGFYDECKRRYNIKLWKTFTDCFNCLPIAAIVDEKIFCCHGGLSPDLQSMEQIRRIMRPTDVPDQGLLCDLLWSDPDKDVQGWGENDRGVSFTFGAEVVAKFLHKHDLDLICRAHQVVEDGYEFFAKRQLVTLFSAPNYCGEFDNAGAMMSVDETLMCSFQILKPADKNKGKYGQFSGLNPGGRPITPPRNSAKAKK

`COc1ccc(-c2cc3ccc(OC)cc3c(=O)[nH]2)cc1` [Compound 4, 7-methoxy-3-(4-methoxyphenyl)isoquinolin-1(2H)-one]: on PP1α (PP1CA), the IC50 was over 50 µM. The Tubulin polymerization inhibition entry in the assay with bovine brain tubulin is “— ((−) signifies that the molecule induces little or no tubulin assembly inhibition in vitro: 0+ or − −5% of the DMSO control.)”. Also, in the assay on HeLa cells, the “Effect on Hela at 25 μM” value was “—”; the “Effect on Hela at 50 and 100 μM” value is listed as “**”. The GI50 with HMEC cells is over 50 µM.
As for `COc1ccc(-c2c([N+](=O)[O-])c3ccc(OC)cc3c(=O)n2CCO)cc1` [Compound 68, 2-(2-Hydroxyethyl)-7-methoxy-3-(4-methoxyphenyl)-4-nitroisoquinoline-1(2H)-one], the IC50 on PP1α (PP1CA) was over 50 µM. For the same compound, the Tubulin polymerization inhibition entry in the assay with bovine brain tubulin is “— ((−) signifies that the molecule induces little or no tubulin assembly inhibition in vitro: 0+ or − −5% of the DMSO control.)”. For the same compound, in the assay with HeLa cells, the “Effect on Hela at 25 μM” value is “—”. In the assay with HMEC cells, this compound came in with a GI50 of 25 to 50 µM.
As to `COc1ccc2c(NC=O)c(-c3ccccc3)[nH]c(=O)c2c1` [Compound 9, N-(7-Methoxy-1-oxo-3-phenyl-1,2-dihydroisoquinoline-4-yl)methanamide], at PP1α (PP1CA), the IC50 is over 50 µM. Besides, the Tubulin polymerization inhibition result in the assay with bovine brain tubulin is recorded as “— ((−) signifies that the molecule induces little or no tubulin assembly inhibition in vitro: 0+ or − −5% of the DMSO control.)”. For the same compound, in the assay on HeLa cells, the “Effect on Hela at 25 μM” value is “—”; the “Effect on Hela at 50 and 100 μM” value is “**”. The compound further gave a GI50 in the assay on HMEC cells of 25 to 50 µM.
With `COc1ccc2c([N+](=O)[O-])c(-c3ccc(OC(=O)OC(C)(C)C)cc3)[nH]c(=O)c2c1` [Compound 73, tert-butyl 4-(7-methoxy-4-nitro-1-oxo-1,2-dihydroisoquinolin-3-yl)phenyl carbonate], at PP1α (PP1CA), the IC50 lay within 10 to 24 µM. In addition, the Tubulin polymerization inhibition entry in the assay on bovine brain tubulin was “— ((−) signifies that the molecule induces little or no tubulin assembly inhibition in vitro: 0+ or − −5% of the DMSO control.)”. For the same compound, in the assay with HeLa cells, the “Effect on Hela at 25 μM” value is recorded as “***”. For the same compound, the GI50 with HMEC cells was 1 to 25 µM.
In the case of `COc1ccc2c(N)c(-c3ccccc3)[nH]c(=O)c2c1` [Compound 10], the half-inhibitory concentration (IC50) at PP1α (PP1CA) was over 50 µM. For the same compound, the Tubulin polymerization inhibition entry with bovine brain tubulin was “+ ((+) signifies that the molecule induces tubulin assembly inhibition in vitro comprised between 6 and 25% of the DMSO control.)”. Also, in the assay with HeLa cells, the “Effect on Hela at 25 μM” value is “—”; the “Effect on Hela at 50 and 100 μM” value is “*”. Besides, in the assay with HMEC cells, the 50% growth inhibitory concentration (GI50) was over 50 µM.
`COc1ccc(COc2nc(-c3ccc(OC)cc3)c(C(F)(F)F)c3ccc(OC)cc23)cc1` [Compound 70, 7-Methoxy-1-(4-methoxybenzyloxy)-3-(4-methoxyphenyl)-4-(trifluoromethyl)isoquinoline]: on PP1α (PP1CA), the IC50 is 10 to 24 µM. For the same compound, the Tubulin polymerization inhibition entry with bovine brain tubulin is “+ ((+) signifies that the molecule induces tubulin assembly inhibition in vitro comprised between 6 and 25% of the DMSO control.)”. Also, in the assay on HeLa cells, the “Effect on Hela at 25 μM” value is on record as “—”. Besides, the GI50 in the assay with HMEC cells was in the range of 25 to 50 µM.
As to `COc1ccc(-c2cc3ccc(OC)cc3c(=O)n2CCO)cc1` [Compound 67, 2-(2-Hydroxyethyl)-7-methoxy-3-(4-methoxyphenyl)isoquinoline-1(2H)-one], on PP1α (PP1CA), the IC50 was 25 to 50 µM. Further, the Tubulin polymerization inhibition result in the assay on bovine brain tubulin is given as “— ((−) signifies that the molecule induces little or no tubulin assembly inhibition in vitro: 0+ or − −5% of the DMSO control.)”. In addition, the “Effect on Hela at 25 μM” value in the assay on HeLa cells was “—”. This compound showed a GI50 with HMEC cells of 25 to 50 µM.
For the compound `COc1ccc(-c2[nH]c(=O)c3ccccc3c2[N+](=O)[O-])cc1` [Compound 7], the IC50 on PP1α (PP1CA) was over 50 µM. Besides, the Tubulin polymerization inhibition result with bovine brain tubulin was “+ ((+) signifies that the molecule induces tubulin assembly inhibition in vitro comprised between 6 and 25% of the DMSO control.)”. For the same compound, the “Effect on Hela at 25 μM” value with HeLa cells is recorded as “***”. This compound also displayed a GI50 in the assay on HMEC cells of 1 to 25 µM.
In the case of `COc1ccc(-c2c([N+](=O)[O-])c3ccc(OC)cc3c(=O)n2C)cc1` [Compound 66, 7-Methoxy-3-(4-methoxyphenyl)-2-methyl-4-nitroisoquinoline-1(2H)-one], the IC50 on PP1α (PP1CA) was at most 9 µM. Moreover, the Tubulin polymerization inhibition result in the assay on bovine brain tubulin is “+ ((+) signifies that the molecule induces tubulin assembly inhibition in vitro comprised between 6 and 25% of the DMSO control.)”. Further, the “Effect on Hela at 25 μM” value in the assay on HeLa cells was “*”. The GI50 in the assay on HMEC cells fell in the range of 1 to 25 µM.
As to `COc1ccc(-c2[nH]c(=O)c3cc(OC)ccc3c2N)cc1` [Compound 1, 4-amino-7-methoxy-3-(4-methoxyphenyl)isoquinolin-1(2H)-one], the IC50 at PP1α (PP1CA) was over 50 µM. Further, in the assay with bovine brain tubulin, the Tubulin polymerization inhibition result is on record as “— ((−) signifies that the molecule induces little or no tubulin assembly inhibition in vitro: 0+ or − −5% of the DMSO control.)”. In addition, the “Effect on Hela at 25 μM” value in the assay on HeLa cells is listed as “***”. In addition, in the assay with HMEC cells, the GI50 was 1 to 25 µM.
In the same order, the values of `COc1ccc(-c2c([N+](=O)[O-])c3ccc(OC)cc3c(=O)n2N)cc1` [Compound 62, 2-Amino-7-methoxy-3-(4-methoxyphenyl)-4-nitroisoquinoline-1(2H)-one] are over 50 µM, “— ((−) signifies that the molecule induces little or no tubulin assembly inhibition in vitro: 0+ or − −5% of the DMSO control.)”, “***” and 1 to 25 µM.
On to `COc1ccc(/C=C\c2cc(OC)c(OC)c(OC)c2)cc1O` [combretastatin A-4, reference compound], for which the “inhibition of PP1Cα activity in vitro” value at PP1α (PP1CA) (PP1Cα 30 mU/well, diFMUP, negative control) is listed as “does not inhibit PP1 activity”.
Consider `O=c1c2ccccc2cc(-c2ccccc2)n1Cc1ccc(O)cc1` [Compound 74, 2-(p-hydroxybenzyl)-3penylisoquinolin-1(2H)-one], for which the IC50 on PP1α (PP1CA) was 10 to 24 µM. Further, the “Effect on Hela at 25 μM” value in the assay with HeLa cells is “—”. Also, the “Effect on Hela at 50 μM” value in the assay on HeLa cells (50 μM) is “*”. The same compound yielded a GI50 with HMEC cells of 25 to 50 µM.
